This note sets out measurements from patent US20070128217A1 (priority 2003, published 2007).

The test system of test [1] is antibodies in sera from SARS patients (sera 1a, 1b, 2, 6, 37, 62, London, SARS-yellow, SARS-green). The test is classed as binding, human. On the set-up: Binding of serum 6 to linear peptides of protein X1 of SARS-CoV Urbani / Binding of serum 37 to linear peptides of protein X1 of SARS-CoV Urbani / Binding of serum 6 to looped/cyclic peptide (PEPSCAN-ELISA) / Binding of serum 37 to looped/cyclic peptide (PEPSCAN-ELISA) / Binding of serum 37 to looped/cyclic peptides of protein X1 of SARS-CoV Urbani / Binding of serum 6 to linear peptides of protein X2 / Binding of serum 37 to linear peptides of protein X2 / Binding of serum 37 to looped/cyclic peptides of protein X2 of SARS-CoV Urbani / Binding of serum 6 to linear peptides of protein M of SARS-CoV Urbani / Binding of serum 37 to linear peptides of protein M of SARS-CoV Urbani / Binding of serum 6 to looped/cyclic peptides of protein M of SARS-CoV Urbani / Binding of serum 37 to looped/cyclic peptides of protein M of SARS-CoV Urbani / Binding of serum 6 to linear peptides of protein X3 of SARS-CoV Urbani / Binding of serum 37 to linear peptides of protein X3 of SARS-CoV Urbani / Binding of serum 37 to looped/cyclic peptides of protein X3 of SARS-CoV Urbani / Binding of serum 6 to linear peptides of protein X4 of SARS-CoV Urbani / Binding of serum 37 to linear peptides of protein X4 of SARS-CoV Urbani / Binding of serum 37 to looped/cyclic peptides of protein X4 of SARS-CoV Urbani / Binding of serum 6 to linear peptides of protein X5 of SARS-CoV Urbani / Binding of serum 37 to linear peptides of protein X5 of SARS-CoV Urbani / Binding of serum 37 to looped/cyclic peptides of protein X5 of SARS-CoV Urbani / Binding of serum 6 to linear peptides of protein N of SARS-CoV Urbani / Binding of serum 37 to linear peptides of protein N of SARS-CoV Urbani / Binding of serum 6 to linear peptide (PEPSCAN-ELISA) / Binding of serum 1a to looped/cyclic peptides of protein N of SARS-CoV Urbani / Binding of serum 1b to looped/cyclic peptides of protein N of SARS-CoV Urbani / Binding of serum 2 to looped/cyclic peptides of protein N of SARS-CoV Urbani / Binding of serum 6 to looped/cyclic peptides of protein N of SARS-CoV Urbani / Binding of serum 37 to looped/cyclic peptides of protein N of SARS-CoV Urbani / Binding of serum 62 to looped/cyclic peptides of protein N of SARS-CoV Urbani / Binding of serum London to looped/cyclic peptides of protein N of SARS-CoV Urbani / Binding of serum SARS-green to looped/cyclic peptides of protein N of SARS-CoV Urbani: unit not given here.

For test [2], the system named is rabbit serum obtained by immunizing a rabbit with the SARS-CoV strain Frankfurt 1. In kind it is binding. Details: Binding of a rabbit serum to linear peptides / Binding of a rabbit serum to looped peptides / Rabbit serum linear peptides / Rabbit serum looped peptides / Binding of a rabbit serum to linear peptides of protein N of SARS-CoV Urbani (Rabbit serum linear peptides) / Binding of a rabbit serum to looped/cyclic peptides of protein N of SARS-CoV Urbani (Rabbit serum looped peptides): unit not given here.

Test [3] concerns control sera (pooled serum of ten healthy LUMC hospital workers; commercial negative donor pooled serum from the Dutch bloodbank). In kind it is binding, human. Details: Binding of Control serum LUMC to linear peptides / Binding of Control serum Blood-bank to linear peptides / Binding of Control serum LUMC to looped peptides / Binding of Control Serum Blood-Bank to Looped peptides / Binding of Control serum LUMC to linear peptides of the protein M of SARS-CoV Urbani / Binding of Control serum Blood-bank to linear peptides of the protein M of SARS-CoV Urbani / Binding of Control serum LUMC to looped peptides of the protein M of SARS-CoV Urbani / Binding of Control Serum Blood-Bank to Looped peptides of the protein M of SARS-CoV Urbani: unit not given here.

Consider QQWIQFMMSRRRLLA, for which, in test [1], the “Binding of serum 1a to linear peptides of protein X2” value worked out at 0.6, the “Binding of serum 1a to looped/cyclic peptides of protein X2 of SARS-CoV Urbani” value is on record as 0.6, the “Binding of serum 1b to linear peptides of protein X2” value came to 0.4 and the “Binding of serum 1b to looped/cyclic peptides of protein X2 of SARS-CoV Urbani” value amounted to 0.5. In addition, in test [1], the “Binding of serum 2 to linear peptides of protein X2” value amounted to 0.4, the “Binding of serum 2 to looped/cyclic peptides of protein X2 of SARS-CoV Urbani” value is reported as 0.6, the “Binding of serum 6 to linear peptides of protein X2” value worked out at 0.8 and the “Binding of serum 6 to looped/cyclic peptides of protein X2 of SARS-CoV Urbani” value is given as 0.4. In test [1], the “Binding of serum 37 to linear peptides of protein X2” value is on record as 0.6, the “Binding of serum 37 to looped/cyclic peptides of protein X2 of SARS-CoV Urbani” value was 0.6, the “Binding of serum 62 to linear peptides of protein X2” value was determined as 0.6 and the “Binding of serum 62 to looped/cyclic peptides of protein X2 of SARS-CoV Urbani” value was determined as 0.8. Moreover, in test [1], the “Binding of serum London to linear peptides of protein X2” value turned out to be 0.5, the “Binding of serum London to looped/cyclic peptides of protein X2 of SARS-CoV Urbani” value amounted to 0.3, the “Binding of serum SARS-green to linear peptides of protein X2” value amounted to 0.6 and the “Binding of serum SARS-green to looped/cyclic peptides of protein X2 of SARS-CoV Urbani” value was 0.5. Moreover, in test [1], the “Binding of serum SARS-yellow to linear peptides of protein X2” value is listed as 0.6 and the “Binding of serum SARS-yellow to looped/cyclic peptides of protein X2 of SARS-CoV Urbani” value stood at 0.4. In test [2], the “Binding of a rabbit serum to linear peptides” value is 0.8 and the “Binding of a rabbit serum to looped peptides” value came to 1.5. In test [3], the “Binding of Control Serum Blood-Bank to Looped peptides” value is 0.7, the “Binding of Control serum Blood-bank to linear peptides” value turned out to be 0.8, the “Binding of Control serum LUMC to linear peptides” value is recorded as 0.6 and the “Binding of Control serum LUMC to looped peptides” value came out at 0.5.

Regarding QTLVLKMLHSSSLTS, in test [1], the “Binding of serum 1a to linear peptides of protein X2” value stood at 0.7, the “Binding of serum 1a to looped/cyclic peptides of protein X2 of SARS-CoV Urbani” value turned out to be 0.6, the “Binding of serum 1b to linear peptides of protein X2” value was 0.5 and the “Binding of serum 1b to looped/cyclic peptides of protein X2 of SARS-CoV Urbani” value came to 0.4. In test [1], the “Binding of serum 2 to linear peptides of protein X2” value was determined as 0.5, the “Binding of serum 2 to looped/cyclic peptides of protein X2 of SARS-CoV Urbani” value was 0.3, the “Binding of serum 6 to linear peptides of protein X2” value is 0.5 and the “Binding of serum 6 to looped/cyclic peptides of protein X2 of SARS-CoV Urbani” value is on record as 0.5. In addition, in test [1], the “Binding of serum 37 to linear peptides of protein X2” value turned out to be 0.5, the “Binding of serum 37 to looped/cyclic peptides of protein X2 of SARS-CoV Urbani” value is listed as 0.4, the “Binding of serum 62 to linear peptides of protein X2” value is given as 0.6 and the “Binding of serum 62 to looped/cyclic peptides of protein X2 of SARS-CoV Urbani” value amounted to 0.6. Besides, in test [1], the “Binding of serum London to linear peptides of protein X2” value stood at 0.4, the “Binding of serum London to looped/cyclic peptides of protein X2 of SARS-CoV Urbani” value came out at 0.9, the “Binding of serum SARS-green to linear peptides of protein X2” value is 0.5 and the “Binding of serum SARS-green to looped/cyclic peptides of protein X2 of SARS-CoV Urbani” value worked out at 0.3. Moreover, in test [1], the “Binding of serum SARS-yellow to linear peptides of protein X2” value is on record as 0.7 and the “Binding of serum SARS-yellow to looped/cyclic peptides of protein X2 of SARS-CoV Urbani” value came to 0.4. Also, in test [2], the “Binding of a rabbit serum to linear peptides” value amounted to 0.3 and the “Binding of a rabbit serum to looped peptides” value was 0.4. Also, in test [3], the “Binding of Control Serum Blood-Bank to Looped peptides” value worked out at 0.5, the “Binding of Control serum Blood-bank to linear peptides” value is given as 0.7, the “Binding of Control serum LUMC to linear peptides” value was 0.4 and the “Binding of Control serum LUMC to looped peptides” value is given as 0.6.

With QVTIAEILIIIMRTF, in test [1], the “Binding of serum 1a to linear peptides of protein X3 of SARS-CoV Urbani” value is listed as 0.7, the “Binding of serum 1a to looped/cyclic peptides of protein X3 of SARS-CoV Urbani” value is listed as 0.7, the “Binding of serum 1b to linear peptides of protein X3 of SARS-CoV Urbani” value was 0.4 and the “Binding of serum 1b to looped/cyclic peptides of protein X3 of SARS-CoV Urbani” value came out at 0.3. In test [1], the “Binding of serum 2 to linear peptides of protein X3 of SARS-CoV Urbani” value came to 0.5, the “Binding of serum 2 to looped/cyclic peptides of protein X3 of SARS-CoV Urbani” value came to 0.5, the “Binding of serum 6 to linear peptides of protein X3 of SARS-CoV Urbani” value is recorded as 0.5 and the “Binding of serum 6 to looped/cyclic peptides of protein X3 of SARS-CoV Urbani” value was 0.5. Besides, in test [1], the “Binding of serum 37 to linear peptides of protein X3 of SARS-CoV Urbani” value stood at 0.4, the “Binding of serum 37 to looped/cyclic peptides of protein X3 of SARS-CoV Urbani” value is given as 0.6, the “Binding of serum 62 to linear peptides of protein X3 of SARS-CoV Urbani” value was 0.7 and the “Binding of serum 62 to looped/cyclic peptides of protein X3 of SARS-CoV Urbani” value is given as 0.4. For the same sequence, in test [1], the “Binding of serum London to linear peptides of protein X3 of SARS-CoV Urbani” value is listed as 0.7, the “Binding of serum London to looped/cyclic peptides of protein X3 of SARS-CoV Urbani” value turned out to be 0.2, the “Binding of serum SARS-green to linear peptides of protein X3 of SARS-CoV Urbani” value was determined as 0.4 and the “Binding of serum SARS-green to looped/cyclic peptides of protein X3 of SARS-CoV Urbani” value is listed as 0.2. In addition, in test [1], the “Binding of serum SARS-yellow to linear peptides of protein X3 of SARS-CoV Urbani” value came to 0.2 and the “Binding of serum SARS-yellow to looped/cyclic peptides of protein X3 of SARS-CoV Urbani” value was 0.7. Moreover, in test [2], the “Rabbit serum linear peptides” value was 0.3 and the “Rabbit serum looped peptides” value was 0.6. In addition, in test [3], the “Binding of Control Serum Blood-Bank to Looped peptides of the protein X3 of SARS-CoV Urbani” value was determined as 0.9, the “Binding of Control serum Blood-bank to linear peptides of the protein X3 of SARS-CoV Urbani” value turned out to be 0.7, the “Binding of Control serum LUMC to linear peptides of the protein X3 of SARS-CoV Urbani” value stood at 0.7 and the “Binding of Control serum LUMC to looped peptides of the protein X3 of SARS-CoV Urbani” value stood at 0.7.

In the case of RARSVSPKLFIRQEE, in test [1], the “Binding of serum 1a to linear peptides of protein X4 of SARS-CoV Urbani” value is reported as 0.8, the “Binding of serum 1a to looped/cyclic peptides of protein X4 of SARS-CoV Urbani” value is on record as 0.8, the “Binding of serum 1b to linear peptides of protein X4 of SARS-CoV Urbani” value is given as 0.6 and the “Binding of serum 1b to looped/cyclic peptides of protein X4 of SARS-CoV Urbani” value came out at 0.7. In test [1], the “Binding of serum 2 to linear peptides of protein X4 of SARS-CoV Urbani” value is listed as 0.4, the “Binding of serum 2 to looped/cyclic peptides of protein X4 of SARS-CoV Urbani” value is 0.6, the “Binding of serum 6 to linear peptides of protein X4 of SARS-CoV Urbani” value is listed as 0.6 and the “Binding of serum 6 to looped/cyclic peptides of protein X4 of SARS-CoV Urbani” value was 0.8. In test [1], the “Binding of serum 37 to linear peptides of protein X4 of SARS-CoV Urbani” value is 0.7, the “Binding of serum 37 to looped/cyclic peptides of protein X4 of SARS-CoV Urbani” value is on record as 0.7, the “Binding of serum 62 to linear peptides of protein X4 of SARS-CoV Urbani” value is recorded as 0.8 and the “Binding of serum 62 to looped/cyclic peptides of protein X4 of SARS-CoV Urbani” value stood at 0.7. Besides, in test [1], the “Binding of serum London to linear peptides of protein X4 of SARS-CoV Urbani” value was 0.8, the “Binding of serum London to looped/cyclic peptides of protein X4 of SARS-CoV Urbani” value worked out at 0.5, the “Binding of serum SARS-green to linear peptides of protein X4 of SARS-CoV Urbani” value is 0.6 and the “Binding of serum SARS-green to looped/cyclic peptides of protein X4 of SARS-CoV Urbani” value was found to be 0.7. In test [1], the “Binding of serum SARS-yellow to linear peptides of protein X4 of SARS-CoV Urbani” value was 0.1 and the “Binding of serum SARS-yellow to looped/cyclic peptides of protein X4 of SARS-CoV Urbani” value came to 0.7. Further, in test [2], the “Recognition of the peptide by the rabbit serum” value was “recognized”. In test [3], the “Binding of Control Serum Blood-Bank to Looped peptides” value worked out at 0.7, the “Binding of Control serum Blood-bank to linear peptides” value is 0.6, the “Binding of Control serum LUMC to linear peptides” value turned out to be 0.5 and the “Binding of Control serum LUMC to looped peptides” value stood at 0.8.
